Tests used:
[1] = test system: BPH / spontaneous acute urinary retention; settings: patients with BPH; cited from earlier work
[2] = test system: human type 2 enzyme (5α-reductase); settings: cited from earlier work
[3] = test system: precipitated acute urinary retention; assay: Four-year double-blind, placebo-controlled study in men with BPH: precipitated acute urinary retention; assay type: in vivo, human
Experimental: A total of 3040 men with moderate to severe symptoms of BPH and enlarged prostates were treated with either finasteride (17β-(N-tert-butylcarbamoyl)-3-oxo-4-aza-5α-androst-1-en-3-one,5 mg daily) or placebo in a four year double-blind, placebo-controlled study. BPH-related outcomes were assessed every 4 months. Patients on alpha blockers, antiandrogens, with a history of chronic prostatitis, recurrent urinary tract infections, or prior prostate or bladder surgery were excluded. A total of 3016 patients randomized to treatment had efficacy data and were included in the analysis of precipitated acute urinary retention; 1513 in the finasteride group and 1503 in the placebo group.
The endpoint committee, blinded to treatment group, reviewed all study-related documents related to episodes of acute urinary retention to classify the episodes as spontaneous or precipitated by other factors. All acute urinary retentions were classified by the endpoint committee as being "clearly" BPH related ("spontaneous") if there was no clear precipitating event, such as surgery within 72 hours, a precipitating medical event (e.g. stroke), or ingestion of a medication thought to precipitate retention (e.g., pseudoephedrine hydrochloride), etc. The other episodes of acute urinary retention were classified as not "clearly" BPH related ("precipitated") since there was likely to be more than one factor (including BPH) involved that precipitated the event.
Acute urinary retention was analyzed using the log-rank test for time-to-first-event and corroborated with Fisher's exact test on the cumulative incidence.

Question: Which “reducing spontaneous acute urinary retention (in words)” value [1] does the source give for `CC(C)(C)NC(=O)[C@H]1CC[C@H]2[C@@H]3CC[C@H]4NC(=O)C=C[C@]4(C)[C@H]3CC[C@]12C` [finasteride, 17β-(N-tert-butylcarbamoyl)-3-oxo-4-aza-5α-androst-1-en-3-one] here?
Answer: Its value is “significantly reducing spontaneous acute urinary retention”.

Question: What about the “treating BPH (in words)” value [1] of the same compound?
Answer: The value was “effective in treating BPH”.

Question: And the “inhibition of the human type 2 enzyme (in words)” value [2]?
Answer: Its value is “potent inhibitor of the human type 2 enzyme”.

Question: And the “patients with an episode of precipitated acute urinary retention (percent)” value ([3]; 5 mg daily, 4-year study period, n=1513 finasteride, placebo 3.3%)?
Answer: The value was 1.5%.

Question: And the “patients with an episode of precipitated acute urinary retention (number)” value ([3]; 5 mg daily, 4-year study period, n=1513 finasteride, placebo 49 of 1503)?
Answer: Its value is 23 patients.

Question: And the “reduction of the risk of having an episode of precipitated acute urinary retention” value ([3]; 5 mg daily, compared with placebo, over the 4-year study period)?
Answer: Its value is 52%.

Question: What about the “relative risk (hazard ratio) versus placebo, precipitated acute urinary retention” value ([3]; finasteride 5 mg daily versus placebo, 4-year study period) of the same compound?
Answer: The value was 0.48.
